Literature values in US4242298A, “Polysaccharide ester membrane clearing process” (priority 1979, dated 1980).
Read-outs that look alike come from different tables or passages of the source.

Experiments:
rat [1] = conditions: oral
rat [2] = conditions: inhalation
rats [3] = conditions: 2000 ppm, 8 hours
rats [4] = conditions: 6 hours
rats [5] = conditions: number of hours not given

Compound | LD50 (rat [1]) [mg/kg] | LCLo (rat [2]; 4H) [ppm] | also measured
CCOCCO [2-ethoxyethanol] | 3000 | 4000 | –
CCOCCOC(C)=O [2-ethoxyethyl acetate] | 5100 | – | LCLo (rat [2]; 8H): 1500 ppm
CC(=O)O [Acetic Acid, reference compound] | – | 1600 | –
O=C1CCCCC1 [Cyclohexanone, reference compound] | 1620 | 2000 | –
CC(=O)CO [acetol] | 2200 | – | lethality on exposure (rats [3]): nonlethal
CCOC(=O)CC(C)=O [ethyl acetoacetate] | – | – | animal's growth, following exposure (rats [4]; 1129 ppm (calculated)): normal; symptoms on exposure (rats [4]; 1129 ppm (calculated)): no symptoms
COC(=O)CC(C)=O [methyl acetoacetate] | 3000 | – | animal's growth, following exposure (rats [4]; 1370 ppm (calculated)): normal; symptoms on exposure (rats [4]; 1370 ppm (calculated)): no symptoms; lethality on exposure to concentrated vapor (rats [5]): nonlethal
